Measurements taken from article PMC10333884, “Large‐scale phosphomimetic screening identifies phospho‐modulated motif‐based protein interactions” (Molecular Systems Biology, 2023).
Non-standard residues stand in square brackets, D forms with d. Residues, ends and D or L forms follow the SMILES beside them. pS = N[C@@H](COP(=O)(O)O)C(=O)O

Columns and labels:
KPNA4 ARM minor = target: T1, KPNA4 ARM minor (Homo sapiens, UniProt O00629); experiment: FP displacement assay, KPNA4 ARM minor pocket; format: binding; details: for IC50: Fig 3E, KPNA4 ARM minor, technical triplicates, read-out: IC50 values of displacement curves, with SEM; for Kd: minor pocket probe FITC-NCOR2 5 nM, 50 mM sodium phosphate pH 7.4, room temperature, at least three technical replicates, read-out: KD values ± SEM
T1 construct: 60-487; GST (cleaved yes); made in house; host or cells: Escherichia coli BL21-Gold(DE3)
T1 sequence (O00629 60-487): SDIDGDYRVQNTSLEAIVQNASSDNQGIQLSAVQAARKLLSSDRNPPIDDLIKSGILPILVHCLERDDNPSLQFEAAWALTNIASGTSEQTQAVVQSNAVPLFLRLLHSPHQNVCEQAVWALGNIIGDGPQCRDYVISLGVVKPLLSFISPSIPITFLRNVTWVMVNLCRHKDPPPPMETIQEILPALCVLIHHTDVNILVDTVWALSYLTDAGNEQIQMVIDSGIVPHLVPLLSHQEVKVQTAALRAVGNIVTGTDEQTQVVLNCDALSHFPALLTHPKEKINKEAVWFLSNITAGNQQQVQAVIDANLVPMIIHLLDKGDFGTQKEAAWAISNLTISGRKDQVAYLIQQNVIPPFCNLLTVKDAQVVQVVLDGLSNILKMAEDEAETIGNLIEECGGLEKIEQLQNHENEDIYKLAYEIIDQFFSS
Procedure: (§1) FP experiments were performed as described previously (Kliche et al, [2021]). Shortly, in order to monitor the binding event, FITC‐labelled peptides were used (excitation 495 nm, emission: 535 nm) and the FP signal was recorded in mP on a SpectraMax iD5 Multi‐Mode Microplate Reader (Molecular Devices) by measuring the emitted light in two angels. The measurements were performed at room temperature and prepared in nonbinding black half area 96‐well microplates (Corning®; 50 μl/well). For measuring direct binding, that is saturation curves, a 1:1 dilution series of protein domain (25 μl/well) was generated in 50 mM sodium phosphate buffer pH 7.4 and the measurement performed with 5 nM FITC‐labelled peptide (25 μl/well). The buffer‐corrected values were subsequently plotted with PRISM and fitted to the quadratic equation (Gianni et al, [2005]).
(§2) The 1:1 dilution series in this experiment was performed with the unlabelled peptide in 50 mM sodium phosphate buffer pH 7.4, so that each well‐contained unlabelled peptide (25 μl) at a certain concentration and pre‐formed complex (25 μl). The KD values of this indirectly monitored binding event were calculated as described previously (Nikolovska‐Coleska et al, [2004]). All measurements were at least in technical triplicates as well as biological duplicates when indicated. An amplitude shift between repeat measurements in the displacement experiments was occasionally observed due to variations in the protein preparations. If that was the case, the “active” protein concentration was back‐calculated according to the quadratic equation from the saturation curves performed in parallel. By comparing the active protein concentrations in the complex between different protein preparations, the amplitude was normalised.

KPNA4 ARM = experiment: Phosphomimetic ProP-PD selection, KPNA4 ARM; format: binding, human; details: phosphomimetic enrichment score of the wild-type/phosphomimetic (E) pair at the phosphosite, PM_HD2 phage selection; same score in the major and minor pocket; P-value in brackets not taken
KPNA4 ARM Major = target: T2, KPNA4 ARM Major (Homo sapiens, UniProt O00629); experiment: FP displacement assay, KPNA4 ARM major pocket; format: binding; details: for IC50: Fig 3E, KPNA4 ARM major, technical triplicates, read-out: IC50 values of displacement curves, with SEM; for Kd: major pocket probe FITC-MYC 5 nM, 50 mM sodium phosphate pH 7.4, room temperature, at least three technical replicates, read-out: KD values ± SEM
T2 construct: 60-487; GST (cleaved yes); made in house; host or cells: Escherichia coli BL21-Gold(DE3)
T2 sequence (O00629 60-487): as above
Procedure: as §1, §2

Row | SMILES | IC50 (KPNA4 ARM minor) [µM] | Kd (KPNA4 ARM minor) [µM] | PES (KPNA4 ARM) | IC50 (KPNA4 ARM Major) [µM] | Kd (KPNA4 ARM Major) [µM]
1 | CC(=O)N[C@@H](CC(N)=O)C(=O)N[C@@H](Cc1ccc(O)cc1)C(=O)N[C@@H](C)C(=O)N1CCC[C@H]1C(=O)N1CCC[C@H]1C(=O)N[C@H](C(=O)N[C@@H](CCCCN)C(=O)N[C@@H](CCCNC(=N)N)C(=O)N[C@@H](CCC(=O)O)C(=O)N[C@@H](CCCNC(=N)N)C(=O)N[C@H](C(=O)N[C@@H](CCC(=O)O)C(=O)N[C@@H](CO)C(=O)N[C@@H](CC(C)C)C(=O)N[C@H](C(=O)N[C@@H](CCC(N)=O)C(N)=O)[C@@H](C)O)[C@@H](C)O)C(C)C [RANBP3_114–129 E (p + 6)] (Ac-NYAPPVKRERTESLTQ-NH2) | 385 ± 220 | 80 ± 27 | −3.1 (0.077) | 1.3 ± 0.1 | 0.14 ± 0.01
2 | CC(=O)N[C@@H](CC(N)=O)C(=O)N[C@@H](Cc1ccc(O)cc1)C(=O)N[C@@H](C)C(=O)N1CCC[C@H]1C(=O)N1CCC[C@H]1C(=O)N[C@H](C(=O)N[C@@H](CCCCN)C(=O)N[C@@H](CCCNC(=N)N)C(=O)N[C@@H](CCC(=O)O)C(=O)N[C@@H](CCCNC(=N)N)C(=O)N[C@H](C(=O)N[C@@H](COP(=O)(O)O)C(=O)N[C@@H](CO)C(=O)N[C@@H](CC(C)C)C(=O)N[C@H](C(=O)N[C@@H](CCC(N)=O)C(N)=O)[C@@H](C)O)[C@@H](C)O)C(C)C [RANBP3_114–129 pS (p + 6)] (Ac-NYAPPVKRERT[pS]SLTQ-NH2) | 98 ± 7 | 20 ± 1 | – | 2 ± 0.5 | 0.22 ± 0.03
